For 28 compounds, inhibition results are on record in patent publication US20100137313A1 (ASTRAZENECA AB, priority 2008, published 2010).

S. pneumoniae Topoisomerase IV ATPase (ParE), sequence (Q59961 whole entry): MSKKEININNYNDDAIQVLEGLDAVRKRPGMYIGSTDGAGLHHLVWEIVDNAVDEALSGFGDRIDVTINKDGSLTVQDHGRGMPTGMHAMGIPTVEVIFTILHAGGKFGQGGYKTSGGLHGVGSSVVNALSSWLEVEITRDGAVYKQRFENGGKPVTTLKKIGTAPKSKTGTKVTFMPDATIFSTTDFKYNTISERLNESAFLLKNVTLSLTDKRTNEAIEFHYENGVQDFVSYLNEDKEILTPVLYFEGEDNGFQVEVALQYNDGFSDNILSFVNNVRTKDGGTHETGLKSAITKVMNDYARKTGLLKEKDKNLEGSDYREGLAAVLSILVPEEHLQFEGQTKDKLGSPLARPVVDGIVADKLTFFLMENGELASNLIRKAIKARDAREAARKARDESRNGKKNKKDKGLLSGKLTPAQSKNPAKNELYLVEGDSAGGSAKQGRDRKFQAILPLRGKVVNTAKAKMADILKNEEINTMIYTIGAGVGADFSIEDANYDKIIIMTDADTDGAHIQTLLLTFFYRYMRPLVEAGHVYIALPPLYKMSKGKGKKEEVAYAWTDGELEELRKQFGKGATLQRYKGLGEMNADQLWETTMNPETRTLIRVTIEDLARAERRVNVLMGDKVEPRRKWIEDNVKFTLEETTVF

The assay addresses S. pneumoniae Topoisomerase IV ATPase (ParE) (Streptococcus pneumoniae serotype 4, UniProt Q59961). Kind of assay: S. pneumoniae Topoisomerase IV ATPase inhibition. Type of assay: biochemical. The following applies: values marked * are an average of two or more data points, read-out: % Inh (13 μM) of S. pneumoniae Topoisomerase IV ATPase. Put shortly: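 Phosphate-release ATPase assay: 1.25 nM ParE, 160 μM ATP, DNA-stimulated. Quench with malachite green/molybdate in 1 M HCl, read 650 nm; IC50 from 10-point dose series.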
Regarding `COc1cc(C#N)cc(Nc2ncc(-c3cnc(OC)c(C(=O)O)c3)c(-n3nc(C(F)(F)F)cc3C)n2)c1` [Example 737, 5-{2-[(3-cyano-5-methoxyphenyl)amino]-4-[5-methyl-3-(trifluoromethyl)-1H-pyrazol-1-yl]pyrimidin-5-yl}-2-methoxypyridine-3-carboxylic acid], the inhibition at 13 µM turned out to be 97%.

Consider `COC(=O)CC(=O)c1cncc(-c2cnc(Nc3ccc(F)c(Cl)c3)nc2-n2nc(C(F)(F)F)cc2C)c1` [Example 1041, Methyl 3-(5-(2-(3-chloro-4-fluorophenylamino)-4-(5-methyl-3-(trifluoromethyl)-1H-pyrazol-1-yl)pyrimidin-5-yl)pyridin-3-yl)-3-oxopropanoate], for which the inhibition at 13 µM stood at 100%.

As for `CC(=O)NCCCNc1nc(Nc2ccc(F)c(Cl)c2)ncc1-c1cncnc1` [Example 377, N-(3-(2-(3-chloro-4-fluorophenylamino)-5,5′-bipyrimidin-4-ylamino)propyl)acetamide], the inhibition at 13 µM worked out at 78.9%.

As to `CCOC(=O)c1cncc(-c2cnc(Nc3ccc(F)c(Cl)c3)nc2N[C@H](C)C(=O)OC)c1` [Example 113, ethyl 5-[2-[(3-chloro-4-fluorophenyl)amino]-4-[[(2R)-1-methoxy-1-oxopropan-2-yl]amino]pyrimidin-5-yl]pyridine-3-carboxylate], the inhibition at 13 µM was 34.3%.

For the compound `CCC1COC(C)CN1c1nc(Nc2ccc(F)c(Cl)c2)ncc1-c1cccc(/C=C/C(=O)O)c1` (stereo not shown) [Example 1056, (E)-3-(3-(2-(3-chloro-4-fluorophenylamino)-4-(5-ethyl-2-methylmorpholino)pyrimidin-5-yl)phenyl)acrylic acid], the inhibition at 13 µM stood at 85%.

For the compound `COCCCNc1nc(Nc2ccc(F)c(Cl)c2)ncc1-c1cnc(OC)nc1` [Example 78, N^2-(3-chloro-4-fluorophenyl)-2′-methoxy-N^4-(3-methoxypropyl)-5,5′-bipyrimidine-2,4-diamine], the inhibition at 13 µM is 80.9%.

For `Cc1noc(CCNC(=O)c2cncc(-c3cnc(Nc4ccc(F)c(Cl)c4)nc3-n3nc(C(F)(F)F)cc3C)c2)n1` [Example 929, 5-(2-(3-chloro-4-fluorophenylamino)-4-(5-methyl-3-(trifluoromethyl)-1H-pyrazol-1-yl)pyrimidin-5-yl)-N-(2-(3-methyl-1,2,4-oxadiazol-5-yl)ethyl)nicotinamide], the inhibition at 13 µM was found to be 82%.

As to `COc1cc(Nc2ncc(-c3cnc(OC)nc3)c(-n3nc(C(F)(F)F)cc3C)n2)cc(C(F)(F)F)c1` [Example 885, 2′-methoxy-N-(3-methoxy-5-(trifluoromethyl)phenyl)-4-(5-methyl-3-(trifluoromethyl)-1H-pyrazol-1-yl)-5,5′-bipyrimidin-2-amine], the inhibition at 13 µM came to 100%.

Consider `COc1cc(C#N)cc(Nc2ncc(-c3cncc(C(=O)O)c3)c(-n3nc(C(F)(F)F)cc3C)n2)c1` [Example 733, 5-{2-[(3-cyano-5-methoxyphenyl)amino]-4-[5-methyl-3-(trifluoromethyl)-1H-pyrazol-1-yl]pyrimidin-5-yl}pyridine-3-carboxylic acid], for which the inhibition at 13 µM came to 100%.

As to `Cc1cc(C(F)(F)F)nn1-c1nc(Nc2ccc(F)c(Cl)c2)ncc1-c1cncc(C(=O)NCCNS(C)(=O)=O)c1` [Example 925, 5-(2-(3-chloro-4-fluorophenylamino)-4-(5-methyl-3-(trifluoromethyl)-1H-pyrazol-1-yl)pyrimidin-5-yl)-N-(2-(methylsulfonamido)ethyl)nictinamide], the inhibition at 13 µM was 88%.

With `COc1cc(Nc2ncc(-c3cnc(OC)c(C(=O)NS(=O)(=O)c4c(C)nn(C)c4C)c3)c(-n3nc(C(F)(F)F)cc3C)n2)cc(OC)c1` [Example 842, 5-{2-[(3,5-dimethoxyphenyl)amino]-4-[5-methyl-3-(trifluoromethyl)-1H-pyrazol-1-yl]pyrimidin-5-yl}-2-methoxy-N-[(1,3,5-trimethyl-1H-pyrazol-4-yl)sulfonyl]pyridine-3-carboxamide], the inhibition at 13 µM was 97%.

For the compound `O=C(O)c1cncc(-c2cnc(Nc3ccc(F)c(Cl)c3)nc2NCc2nc3ccccc3[nH]2)c1` [Example 241, 5-[4-(1H-benzimidazol-2-ylmethylamino)-2-[(3-chloro-4-fluorophenyl)amino]-pyrimidin-5-yl]pyridine-3-carboxylic acid], the inhibition at 13 µM came out at 71.5%.

With `COc1cc(Cl)c(C)cc1Nc1ncc(-c2ccc(C(=O)O)s2)c(NCCCN(C)C)n1` [Example 342, 5-(2-(4-chloro-2-methoxy-5-methylphenylamino)-4-(3-(dimethylamino)propylamino)pyrimidin-5-yl) thiophene-2-carboxylic acid], the inhibition at 13 µM was 77%.

For `CCn1cc(-c2cnc(Nc3ccc(F)c(Cl)c3)nc2-n2ccc(C(F)(F)F)n2)cc(C(=O)O)c1=O` [Example 1085, 5-(2-(3-Chloro-4-fluorophenylamino)-4-(3-(trifluoromethyl)-1H-pyrazol-1-yl)pyrimidin-5-yl)-1-ethyl-2-oxo-1,2-dihydropyridine-3-carboxylic acid], the inhibition at 13 µM turned out to be 100%.

As to `CCCS(=O)(=O)NC(=O)c1cc(-c2cnc(Nc3cc(C)cc(C)c3)nc2-n2nc(C(F)(F)F)cc2C)cnc1OC` [Example 825, 5-{2-[(3,5-dimethylphenyl)amino]-4-[5-methyl-3-(trifluoromethyl)-1H-pyrazol-1-yl]pyrimidin-5-yl}-2-methoxy-N-(propylsulfonyl)pyridine-3-carboxamide], the inhibition at 13 µM is 100%.

Regarding `CN1CCN(CCNc2nc(Nc3ccc(F)c(Cl)c3)ncc2-c2cccc(/C=C/C(=O)O)c2)CC1` [Example 270, (2E)-3-[3-(2-[(3-chloro-4-fluorophenyl)amino]-4-{[2-(4-methylpiperazin-1-yl)ethyl]amino}pyrimidin-5-yl)phenyl]prop-2-enoic acid], the inhibition at 13 µM came to 87.7%.

As for `CS(=O)(=O)NCCCNc1nc(Nc2ccc(F)c(Cl)c2)ncc1-c1cncnc1` [Ex 378, N-(3-(2-(3-chloro-4-fluorophenylamino)-5,5′-bipyrimidin-4-ylamino)propyl) methanesulfonamide], the inhibition at 13 µM stood at 75.2%.

Consider `NC(=O)c1cccc(Nc2ncc(-c3cccc(/C=C/C(=O)O)c3)c(-n3ccc(C(F)(F)F)n3)n2)c1` [Example 690, (2E)-3-(3-{2-[(3-carbamoylphenyl)amino]-4-[3-(trifluoromethyl)-1H-pyrazol-1-yl]pyrimidin-5-yl}phenyl)prop-2-enoic acid], for which the inhibition at 13 µM was 100%.

With `COc1ncc(-c2cnc(Nc3cc(C)ccc3F)nc2-n2nc(C(F)(F)F)cc2C)cc1C(=O)O` [Example 757, 5-{2-[(2-fluoro-5-methylphenyl)amino]-4-[5-methyl-3-(trifluoromethyl)-1H-pyrazol-01-yl]pyrimidin-5-yl}-2-methoxypyridine-3-carboxylic acid], the inhibition at 13 µM stood at 19%.

As to `CS(=O)(=O)c1cccc(Nc2ncc(-c3cncc(C(=O)O)c3)c(-n3ccc(C(F)(F)F)n3)n2)c1` [Example 643, 5-(2-{[3-(methylsulfonyl)phenyl]amino}-4-[3-(trifluoromethyl)-1H-pyrazol-1-yl]pyrimidin-5-yl)pyridine-3-carboxylic acid], the inhibition at 13 µM turned out to be 100%.

Turning to `CC(C)Oc1ncc(-c2cnc(Nc3ccc(F)c(Cl)c3)nc2-n2ccc(C(F)(F)F)n2)cc1C(=O)O` [Example 959, 5-(2-(3-chloro-4-fluorophenylamino)-4-(3-(trifluoromethyl)-1H-pyrazol-1-yl)pyrimidin-5-yl)-2-isopropoxynicotinic acid], the inhibition at 13 µM amounted to 93%.

As for `CCOC(=O)c1sc(-c2cnc(Nc3ccc(F)c(Cl)c3)nc2NCCCOC)nc1-c1ccccn1` [Example 507, ethyl 2-{2-[(3-chloro-4-fluorophenyl)amino]-4-[(3-methoxypropyl)amino]pyrimidin-5-yl}-4-(pyridin-2-yl)-1,3-thiazole-5-carboxylate], the inhibition at 13 µM was 74%.

Take `COc1cc(F)cc(Nc2ncc(-c3cccc(C(=O)O)c3)c(-n3ccc(C(F)(F)F)n3)n2)c1` [Example 893, 3-(2-(3-fluoro-5-methoxyphenylamino)-4-(3-(trifluoromethyl)-1H-pyrazol-1-yl)pyrimidin-5-yl)benzoic acid]: the inhibition at 13 µM is 99%.

In the case of `CCOC(=O)c1cncc(-c2cnc(Nc3ccc(F)c(Cl)c3)nc2NCCNC(=O)OC(C)(C)C)c1` [Example 98, 5-[4-(2-tert-Butoxycarbonylamino-ethylamino)-2-(3-chloro-4-fluoro-phenylamino)-pyrimidin-5-yl]-nicotinic acid ethyl ester], the inhibition at 13 µM is 59.4%.

On to `COc1cc(Nc2ncc(-c3ccc(C(=O)O)s3)c(NCCCN(C)C)n2)cc(OC)c1` [Example 345, 5-(2-(3,5-dimethoxy-phenylamino)-4-(3-(dimethylamino)propyamino)pyrimidin-5-yl) thiophene-2-carboxylic acid], for which the inhibition at 13 µM turned out to be 82.7%.

For the compound `COc1cc(Nc2ncc(-c3cccc(/C=C/C(=O)O)c3)c(N3CC(C)OC(C)C3)n2)cc(C(F)(F)F)c1` (stereo not shown) [Example 348, (E)-3-(3-(4-(2,6-dimethylmorpholino)-2-(3-methoxy-5-(trifluoromethyl)phenylamino)pyrimidin-5-yl)phenyl) acrylic acid], the inhibition at 13 µM was found to be 85.7%.

As to `CCOC(=O)c1cncc(-c2cnc(Nc3ccc(F)c(Cl)c3)nc2NCCC(N)=O)c1` [Example 99, 5-[4-(2-Carbamoyl-ethylamino)-2-(3-chloro-4-fluoro-phenylamino)-pyrimidin-5-yl]-nicotinic acid ethyl ester], the inhibition at 13 µM came to 82%.

In the case of `CCn1cc(-c2cnc(Nc3cc(OC)cc(OC)c3)nc2-n2nc(C(F)(F)F)cc2C)cc(C(=O)O)c1=O` [Example 919, 5-(2-(3,5-dimethoxyphenylamino)-4-(5-methyl-3-(trifluoromethyl)-1H-pyrazol-1-yl)pyrimidin-5-yl)-1-ethyl-2-oxo-1,2-dihydropyridine-3-carboxylic acid], the inhibition at 13 µM is 99%.
